Data taken from paper doi:10.1101/2024.08.19.608619, “Discovery of potent SARS-CoV-2 nsp3 macrodomain inhibitors uncovers lack of translation to cellular antiviral response” (bioRxiv, 2024).
Converted amounts (≈) assume the structure as drawn. Where two headings read alike, the source gives them in different places.

What was measured:
HeLa-ACE2 cells = conditions: for perc_max_measured: highest measured response of the dose series; for perc_min_measured: lowest measured response of the dose series
LogD = conditions: pH 7.4; In vitro LogD
[1] = Hepatic microsomal stability, HLM; type: in vitro ADME, human; conditions: In vitro human liver microsomal stability; for perc_remaining_no_cofactor: no cofactor
in vitro = conditions: human, hela-ace2 cells, 50.0
[2] = system: SARS-CoV-2, isolate USA-WA1/2020; assay: microbe, parasite or virus in culture; type: cell-based; conditions: HeLa-ACE2 SARS-CoV-2 antiviral effect without P-gp inhibitor; for perc_max_measured: maximum measured response of dose series; for perc_min_measured: minimum measured response of dose series; for EC50: read-out: ec50; for EC90: read-out: ec90
[3] = In vitro kinetic solubility; conditions: In vitro kinetic solubility, ph 7.4
[4] = Hepatic microsomal stability, MLM; type: in vitro ADME; conditions: In vitro mouse liver microsomal stability; for perc_remaining_no_cofactor: no cofactor
[5] = Permeability Papp (AB) MDR1/MDCKII; conditions: for papp_a_to_b_mean: A to B
[6] = In vitro MDR1-MDCKII permeability, no inhibitor
[7] = In vitro MDR1-MDCKII permeability, recovery A to B, no inhibitor
[8] = protocol HeLa-ACE2 cytotoxicity
[9] = In vitro MDR1-MDCKII permeability, mean
[10] = In vitro MDR1-MDCKII permeability, recovery A to B, mean

For `CC(C)(C)[C@H](Nc1ncnc2[nH]c(-c3cnn(CC(N)=O)c3)cc12)c1ccc2c(c1)OCCO2` (single isomer, unassigned) [ASAP-0012330], the CC50 (HeLa-ACE2 cells; HeLa-ACE2 cytotoxicity) was over 20 µM, the cc10 (HeLa-ACE2 cells; HeLa-ACE2 cytotoxicity) was over 20.0 µM and the perc_max_measured (HeLa-ACE2 cells; HeLa-ACE2 cytotoxicity) was 98.779%. For the same molecule, the perc_min_measured (HeLa-ACE2 cells; HeLa-ACE2 cytotoxicity) was 88.572%, the logd (LogD) was 3.0 and the clint [1] was 153.0 µL/min/mg. The perc_remaining [1] was 9.0%, the t_half [1] was 10.9 min and the perc_remaining_no_cofactor [1] was 100.0%. For the same molecule, the CC50 at 24 h (in vitro) was over 20 µM, the perc_max_measured [2] was 108.484% and the perc_min_measured [2] was 91.129%. For the same molecule, the EC50 [2] was over 20 µM, the EC90 [2] was over 20 µM and the solubility_mean [3] was 89 µM (≈ 41.1 µg/mL). For the same molecule, the clint [4] was 44.0 µL/min/mg, the perc_remaining [4] was 48.0% and the t_half [4] was 38.3 min. The perc_remaining_no_cofactor [4] was 105.0%, the papp_a_to_b_mean [5, 6] was 0.364 ×10⁻⁶ cm/s and the perc_recovery_a_to_b_mean [5, 7] was 67.4%.
Work on `CC(C)[C@@H](Nc1ncnc2[nH]c(-c3cnn(CC(N)=O)c3)cc12)c1ccc2c(c1)S(=O)(=O)CCC2` [ASAP-0011432] yielded a CC50 (HeLa-ACE2 cells; [8]) of over 20 µM, a cc10 (HeLa-ACE2 cells; [8]) of over 20.0 µM and a perc_max_measured (HeLa-ACE2 cells; [8]) of 97.628%. It also gave a perc_min_measured (HeLa-ACE2 cells; [8]) of 83.24%, a logd (LogD) of 2.0 and a clint [1] of 115.0 µL/min/mg. The perc_remaining [1] was 15.0%, the t_half [1] was 14.5 min and the perc_remaining_no_cofactor [1] was 103.0%. It also gave a CC50 at 24 h (in vitro) of over 20 µM, a perc_max_measured [2] of 127.59% and a perc_min_measured [2] of 107.301%. It also gave an EC50 [2] of over 20 µM, an EC90 [2] of over 20 µM and a solubility_mean [3] of 335 µM (≈ 165 µg/mL). For the same molecule, the clint [4] was 96.0 µL/min/mg, the perc_remaining [4] was 20.0% and the t_half [4] was 17.4 min. For the same molecule, the perc_remaining_no_cofactor [4] was 111.0%, the papp_a_to_b_mean [5, 9] was 0.719 ×10⁻⁶ cm/s and the perc_recovery_a_to_b_mean [5, 10] was 76.6%.
With `CC(C)[C@H](Nc1ncnc2[nH]c(-c3cnn(C)c3C#N)cc12)c1ccc2c(n1)NC(=O)CO2` (single isomer, unassigned) [ASAP-0011177] the CC50 (HeLa-ACE2 cells; HeLa-ACE2 cytotoxicity) was over 20 µM, the cc10 (HeLa-ACE2 cells; HeLa-ACE2 cytotoxicity) was over 20.0 µM and the perc_max_measured (HeLa-ACE2 cells; HeLa-ACE2 cytotoxicity) was 109.886%. The perc_min_measured (HeLa-ACE2 cells; HeLa-ACE2 cytotoxicity) was 55.576%, the logd (LogD) was 3.7 and the clint [1] was 137.0 µL/min/mg. The perc_remaining [1] was 10.0%, the t_half [1] was 12.2 min and the perc_remaining_no_cofactor [1] was 92.0%. It also gave a CC50 at 24 h (in vitro) of over 20 µM, a perc_max_measured [2] of 70.604% and a perc_min_measured [2] of 3.388%. For the same molecule, the EC50 [2] was 0.858 µM, the EC90 [2] was over 20 µM and the solubility_mean [3] was 28 µM (≈ 12.4 µg/mL). It also gave a clint [4] of 131.0 µL/min/mg, a perc_remaining [4] of 12.0% and a t_half [4] of 12.8 min. It also gave a perc_remaining_no_cofactor [4] of 85.0%, a papp_a_to_b_mean [5, 9] of 9.35 ×10⁻⁶ cm/s and a papp_a_to_b_mean [5, 6] of 0.0964 ×10⁻⁶ cm/s. The papp_b_to_a_mean ([5]; In vitro MDR1-MDCKII permeability, B to A, no inhibitor) was 6.5 ×10⁻⁶ cm/s, the efflux_ratio [5, 6] was 67.2 and the perc_recovery_a_to_b_mean [5, 10] was 80.2%. The perc_recovery_a_to_b_mean [5, 7] was 69.4%, the perc_recovery_b_to_a_mean ([5]; In vitro MDR1-MDCKII permeability, recovery B to A, no inhibitor) was 79.8% and the perc_recovery_a_to_b_inhibitor_mean ([5]; MDR1-MDCKII, recovery A to B, with inhibitor Verapamil) was 78.2%. For the same molecule, the perc_recovery_b_to_a_inhibitor_mean ([5]; MDR1-MDCKII, recovery B to A, with inhibitor Verapamil) was 81.1%.
In the case of `COc1ccc([C@@H](Cc2nnn[nH]2)NC(=O)c2ncnc3[nH]ccc23)cc1` [ASAP-0015384], the CC50 (HeLa-ACE2 cells; HeLa-ACE2 cytotoxicity) is reported as over 20 µM, the cc10 (HeLa-ACE2 cells; HeLa-ACE2 cytotoxicity) is reported as over 20.0 µM and the perc_max_measured (HeLa-ACE2 cells; HeLa-ACE2 cytotoxicity) is reported as 99.805%. It also gave a perc_min_measured (HeLa-ACE2 cells; HeLa-ACE2 cytotoxicity) of 83.484%, a CC50 at 24 h (in vitro) of over 20 µM and a perc_max_measured [2] of 136.92%. For the same molecule, the perc_min_measured [2] was 93.837%, the EC50 [2] was over 20 µM and the EC90 [2] was over 20 µM.
`CCNC(=O)c1cc2c(N[C@H](c3ccc4c(c3)OCCO4)C(C)C)ncnc2[nH]1` (single isomer, unassigned) [ASAP-0013827] showed a perc_max_measured (HeLa-ACE2 cells; HeLa-ACE2 cytotoxicity) of 106.128%, a perc_min_measured (HeLa-ACE2 cells; HeLa-ACE2 cytotoxicity) of 83.696% and a logd (LogD) of 3.6. For the same molecule, the clint [1] was 1329.0 µL/min/mg, the perc_remaining [1] was 1.0% and the t_half [1] was 1.3 min. For the same molecule, the perc_remaining_no_cofactor [1] was 97.0%, the perc_max_measured [2] was 113.12% and the perc_min_measured [2] was 80.543%. For the same molecule, the EC50 [2] was over 20 µM, the EC90 [2] was over 20 µM and the solubility_mean [3] was 13 µM (≈ 5.14 µg/mL). For the same molecule, the clint [4] was 72.0 µL/min/mg, the perc_remaining [4] was 29.0% and the t_half [4] was 23.2 min. It also gave a perc_remaining_no_cofactor [4] of 92.0%, a papp_a_to_b_mean [5, 6] of 2.9 ×10⁻⁶ cm/s and a perc_recovery_a_to_b_mean [5, 7] of 81.7%.
Work on `C[C@@H](C(=O)O)[C@H](NC(=O)c1ncnc2[nH]ccc12)c1ccc(Br)cc1` [ASAP-0014726] yielded a CC50 (HeLa-ACE2 cells; HeLa-ACE2 cytotoxicity) of over 20 µM, a cc10 (HeLa-ACE2 cells; HeLa-ACE2 cytotoxicity) of over 20.0 µM and a perc_max_measured (HeLa-ACE2 cells; HeLa-ACE2 cytotoxicity) of 106.212%. For the same molecule, the perc_min_measured (HeLa-ACE2 cells; HeLa-ACE2 cytotoxicity) was 72.067%, the CC50 at 24 h (in vitro) was over 20 µM and the perc_max_measured [2] was 129.968%. The perc_min_measured [2] was 44.709%.
For `CCNC(=O)c1cc2c(N[C@H](c3ccc4c(c3)OCCO4)C(C)C)ncnc2[nH]1` [ASAP-0013824], the CC50 (HeLa-ACE2 cells; HeLa-ACE2 cytotoxicity) was over 20 µM, the cc10 (HeLa-ACE2 cells; HeLa-ACE2 cytotoxicity) was over 20.0 µM and the perc_max_measured (HeLa-ACE2 cells; HeLa-ACE2 cytotoxicity) was 99.37%. The perc_min_measured (HeLa-ACE2 cells; HeLa-ACE2 cytotoxicity) was 90.423%, the logd (LogD) was 3.6 and the clint [1] was 67.0 µL/min/mg. It also gave a perc_remaining [1] of 32.0%, a t_half [1] of 24.8 min and a perc_remaining_no_cofactor [1] of 100.0%. For the same molecule, the perc_max_measured [2] was 109.949%, the perc_min_measured [2] was 49.504% and the EC50 [2] was 19.7 µM. For the same molecule, the EC90 [2] was over 20 µM, the solubility_mean [3] was 263 µM (≈ 104 µg/mL) and the clint [4] was 48.0 µL/min/mg. It also gave a perc_remaining [4] of 47.0%, a t_half [4] of 34.6 min and a perc_remaining_no_cofactor [4] of 94.0%. It also gave a papp_a_to_b_mean [5, 6] of 2.7 ×10⁻⁶ cm/s and a perc_recovery_a_to_b_mean [5, 7] of 94.3%.
Molecule `Cc1nn(C)cc1-c1cc2c(N[C@H](c3ccc4c(c3)S(=O)(=O)CCC4)C(C)C)ncnc2[nH]1` (single isomer, unassigned) [ASAP-0011448] has a CC50 (HeLa-ACE2 cells; [8]) of over 20 µM, a cc10 (HeLa-ACE2 cells; [8]) of over 20.0 µM and a perc_max_measured (HeLa-ACE2 cells; [8]) of 94.816%. For the same molecule, the perc_min_measured (HeLa-ACE2 cells; [8]) was 77.647%, the logd (LogD) was 3.4 and the clint [1] was 251.0 µL/min/mg. The perc_remaining [1] was 2.0%, the t_half [1] was 6.6 min and the perc_remaining_no_cofactor [1] was 116.0%. For the same molecule, the perc_max_measured [2] was 131.643%, the perc_min_measured [2] was 93.649% and the EC50 [2] was over 20 µM. For the same molecule, the EC90 [2] was over 20 µM, the solubility_mean [3] was 63 µM (≈ 29.3 µg/mL) and the clint [4] was 390.0 µL/min/mg. For the same molecule, the perc_remaining [4] was 1.0%, the t_half [4] was 4.3 min and the perc_remaining_no_cofactor [4] was 103.0%. It also gave a papp_a_to_b_mean [5, 9] of 3.69 ×10⁻⁶ cm/s and a perc_recovery_a_to_b_mean [5, 10] of 77.9%.
For `CCNC(=O)c1cc2c(N[C@H](c3ccc4c(c3)S(=O)(=O)CCC4)C(C)C)ncnc2[nH]1` [ASAP-0012325], the logd (LogD) was 2.7, the clint [1] was 109.0 µL/min/mg and the perc_remaining [1] was 17.0%. It also gave a t_half [1] of 15.4 min, a perc_remaining_no_cofactor [1] of 102.0% and a solubility_mean [3] of 337 µM (≈ 149 µg/mL). For the same molecule, the clint [4] was 64.0 µL/min/mg, the perc_remaining [4] was 34.0% and the t_half [4] was 26.3 min. The perc_remaining_no_cofactor [4] was 97.0%, the papp_a_to_b_mean [5, 6] was 0.717 ×10⁻⁶ cm/s and the perc_recovery_a_to_b_mean [5, 7] was 88.3%.
In the case of `CNC(=O)c1cc2c(N[C@@H](c3ccc4c(c3)NC(=O)CO4)C(C)C)ncnc2[nH]1` [ASAP-0008571], the logd (LogD) is reported as 2.8, the clint [1] is reported as 52.0 µL/min/mg and the perc_remaining [1] is reported as 39.0%. The t_half [1] was 32.0 min, the perc_remaining_no_cofactor [1] was 94.0% and the solubility_mean [3] was 372 µM (≈ 147 µg/mL). For the same molecule, the clint [4] was 20.0 µL/min/mg, the perc_remaining [4] was 71.0% and the t_half [4] was 84.4 min. The perc_remaining_no_cofactor [4] was 103.0%, the papp_a_to_b_mean [5, 9] was 0.873 ×10⁻⁶ cm/s and the perc_recovery_a_to_b_mean [5, 10] was 88.1%.
